In publication PMC7901650, “Garcinoic Acid Is a Natural and Selective Agonist of Pregnane X Receptor” (Journal of Medicinal Chemistry, 2020):

Legend:
[1] = molecular target: T1, FXR (Homo sapiens, UniProt Q96RI1); experiment: AlphaScreen nuclear receptor panel, FXR; type: biochemical
T1 construct: GST-LBD
T1 sequence (Q96RI1 262-486 limits assumed): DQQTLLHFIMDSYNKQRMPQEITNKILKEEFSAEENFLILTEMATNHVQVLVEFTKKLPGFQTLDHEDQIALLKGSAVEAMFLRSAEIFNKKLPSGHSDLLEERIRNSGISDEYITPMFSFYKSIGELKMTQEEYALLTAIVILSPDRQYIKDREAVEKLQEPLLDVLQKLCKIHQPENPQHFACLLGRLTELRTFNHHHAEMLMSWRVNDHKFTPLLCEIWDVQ
Description: (§1) Ligand binding activity of GA (1) was explored via AlphaScreen technology over a panel of NRs that, along with hPXR (Figure 1A), included major human endocrine and metabolic receptors, such as the retinoid X receptor (RXR), constitutive androstane receptor (CAR), farnesoid X receptor (FXR), vitamin D receptor (VDR), liver X receptor (LXR) forms α and β, and the PPAR isoforms α, δ, and γ (see Figure S1). GA (1) was compared to its analogue δ-tocotrienol (5), the vitamers 3 and 4, their short-chain metabolites (SCMs) α-CEHC (10) and γ-CEHC (11), and the LCMs 2 and 8 (Chart 1). The test was performed in the presence of reference standard agonists for the different NRs.
(§2) The activity of nuclear receptors was determined using AlphaScreen technology, a recruitment coactivator assay previously described.[56]
(§3) (A) The test was carried out at 10 μM compound final concentration. Ligand binding to nuclear receptors was expressed as luminescence units. […] Vehicle was assessed to obtain a measure of background signal (basal evaluation). […] In presence of the ligand, the nuclear receptor LBD undergoes conformational changes, binds to the coactivator and the chemical energy is transferred from donor to acceptor beads in order to produce a signal, i.e. luminescence; in this case the compounds behaves as agonist, changing the conformation of the receptor to recruit the coactivator. […]

[2] = tested on: HepaRG cells; experiment: PXR protein expression in HepaRG cells; type: cell-based; conditions: 24 h, 1 to 25 μM, compared with HepG2
Experimental: HepG2 (human hepatoma cell line; ATCC HB-8065, Manassas, VA) and HepaRG (HPRGC10, Thermo Fisher Scientific) cells were maintained in culture as previously described.[47] Experiments were performed between passages 2 and 10. Cell viability, clonogenic activity, and apoptotic cell death were assessed as previously described (see Figure S2).[58],[59] HT29 human colorectal adenocarcinoma cells (ATCC HTB-38) and its mucous-secreting HT29-MTX subclone (Sigma-Aldrich) were used as intestinal cell models. HT29 cells were cultured in RPMI (Invitrogen; Life Technologies) containing 10% FBS (v/v) and 1% (v/v) L-glutamine. HT29-MTX cells (from Sigma-Aldrich) were cultured in DMEM supplemented with 2 mM glutamine, 1% nonessential amino acids, and 10% FBS. […]
Cells were harvested and lysed in ice-cold cell lysis buffer (Cell Signaling Technology) and 20 μL/mL protease inhibitor cocktail (Roche). […] After incubation in ice for 1 h and centrifugation (12 000 rpm for 20 min at 4 °C), the supernatant was recovered, and total proteins were quantified by the BCA assay kit (Pierce, Thermo Fisher Scientific). […] The band intensity was analyzed using Gel Pro analyzer Software. […]
PXR protein was assessed by immunoblot (10 µg total protein loading) in HepaRG cells treated for 24 hrs with GA at concentrations between 1 and 25 μM (A). […]

[3] = tested on: PXR; experiment: PXR, CYP3A4 (CYP3A11) expression in mouse liver and intestine after single bolus; type: in vivo; conditions: 24 h post-treatment
[4] = tested on: RXR; experiment: AlphaScreen nuclear receptor panel, RXR; type: biochemical, human
Description: as §1, §2, §3

C/C(=C\CC/C(C)=C/CC[C@]1(C)CCc2cc(O)cc(C)c2O1)CC/C=C(\C)C(=O)O [GA (1), (2E,6E,10E)-13-[(2R)-6-hydroxy-2,8-dimethyl-chroman-2-yl]-2,6,10-trimethyltrideca-2,6,10-trienoic acid]
Response on FXR [1]: No response
PXR protein response [2]: Even higher
CYP3A4 (CYP3A11 in mice) protein expression in liver and intestine ([3]; 5 to 25 mg single bolus): increased
PXR mRNA in intestine ([3]; mice, 5 to 25 mg single bolus): increased
PXR protein and mRNA in liver tissue ([3]; mice, 5 to 25 mg single bolus): dose-dependent stimulation effect
PXR protein expression in intestine ([3]; mice, single bolus): not sufficient to significantly increase PXR protein expression
Response on RXR [4]: No response
